In patent publication US20240238218A1, “[…] A […] ACTIVE COMPOUND AND METHOD OF PREPARATION THEREOF” (GW Research Limited, priority 2021, published 2024):

Tests used:
RjOrl: Swiss mice = experiment: Mouse 6 Hz (44 mA) psychomotor seizure test; format: in vivo; details: for Forelimb clonus (mean ± s.e.m.): score 0-2
Source text: The 6 Hz Psychomotor Test, which detects anticonvulsant activity, follows that described by Brown et al. (J. Pharmacol. Exp. Ther. 107, 273-283, 1953).
Male RjOrl: Swiss mice, 5 weeks old, weighing 28-38 g at the beginning of the experiment. Animals were acclimatized to the test facility for at least 5 days after delivery and randomly housed in groups of 3-4 in macrolon cages on wood litter with free access to food and water.
Before transcorneal stimulation, a drop of tetracaine solution (2%) was applied on each eye of the mouse for local anesthesia. Between 1-10 minutes later, at the pre-treatment time specified for the test compound, the mice were administered a rectangular current (44 mA, rectangular pulse: 0.2 ms pulse width, 3 s duration, 6 Hz) via corneal electrodes connected to a constant current shock generator.
The number of seizures as reflected by forelimb clonus were recorded immediately after current administration. Forelimb clonus was scored as absent (0=no forelimb clonus), mild (1=clonus with one forelimb) and strong (2=clonus with both forelimbs).
[…] The experimenters were blinded to the treatment. The cages were randomly assigned to a treatment code, each designating one treatment group.
Compound I was administered intraperitoneally at 20 and 50 mg/kg, 30 minutes before the test, and at 100 and 200 mg/kg, 60 minutes before the test and were compared with the vehicle control (5% ethanol, 10% […], 85% physiological saline).
Valproate (300 mg/kg i.p.), administered 30 minutes before the test, was used as reference substance and was compared with the vehicle control (5% ethanol, 10% Kolliphor HS15, 85% physiological saline).
(§1) Test compound: Compound I dissolved in 5% ethanol, 10% Kolliphor HS15, 85% physiological saline.
(§2) Vehicle control: 5% ethanol, 10% Kolliphor HS15, 85% physiological saline.
Reference: Valproate (300 mg/kg), dissolved in 5% ethanol, 10% Kolliphor HS15, 85% physiological saline.
Data were assumed to be non-normally distributed based on validation data, therefore non-parametric tests were utilized. Quantitative data (scores) with the test substance were analyzed by comparing treated groups with the corresponding vehicle control using Kruskal-Wallis test with Dunn's multiple comparisons test when the Kruskal-Wallis Test was significant. Quantitative data with the reference substance was analysed using Mann-Whitney U test.

DBA/2 mice = experiment: DBA/2 mouse audiogenic seizure test; format: in vivo; details: for Clonic convulsion, Latency (s) Median / Tonic extension, Latency (s) Median / Wild running, Latency (s) Median: bell maximum 60 seconds; for Mice with a rectal temperature below 35.0° C / Tremor noted (number of mice): group of 10
Source text: The DBA/2 audiogenic seizure test, which detects anticonvulsant activity, follows that described by Dürmüller et al. (NeuroReport, vol. 4, no. 6, pages 683-686, 1993).
60 male DBA/2 mice (3-4 weeks old) were included in the experiment (weight range 8-11 g at the beginning of the experiment). Animals were acclimatized to the test facility for 1 day after delivery and randomly housed in groups of 5 in macrolon cages on wood litter with free access to food and water.
Mice were individually transferred (at 3-5 minutes intervals) from the preparation room into an adjacent experimental room and body temperature was measured using a rectal thermometer. Immediately after, they were placed in a Plexiglas jar (Diameter=40 cm; Height=35 cm) mounted with an electric bell. Upon activating the bell, the occurrences and latencies to wild running fits, clonic and tonic seizures were measured. Deaths were also recorded. The bell was activated until a tonic seizure occured or for a maximum of 60 seconds.
The experiment included 6 groups (10 mice were studied per group). Experimenters were blinded to the treatment groups.
The test substance was evaluated at 4 doses, administered i.p. (10 mL/kg) 30 or 60 minutes before the test, and compared with a vehicle control group. Doses and pre-treatment times were based on previous pharmacokinetic data.
as §1, §2
Reference: Valproate (180 mg/kg), dissolved in 5% ethanol, 10% Kolliphor HS15, 85% physiological saline.
Quantitative data (latencies) with the test substance were analyzed by comparing treated groups with vehicle control using Kruskal-Wallis test followed by Dunn's multiple comparisons test. Quantitative data with the reference substance were analyzed using Mann-Whitney U test.
Quantal data (frequencies) were analyzed by comparing treated groups with vehicle control using Fisher's Exact Probability tests.

[1] = 20 mg/kg i.p., 30 minutes before the test
[2] = 50 mg/kg i.p., 30 minutes before the test
[3] = 100 mg/kg i.p., 60 minutes before the test
[4] = 200 mg/kg i.p., 60 minutes before the test
[5] = 20 mg/kg i.p., 30 min before the test
[6] = 50 mg/kg i.p., 30 min before the test
[7] = 100 mg/kg i.p., 60 min before the test
[8] = 100 mg/kg i.p., 60 min before the test, mice with rectal temperature below 35.0° C removed
[9] = 200 mg/kg i.p., 60 min before the test
[10] = 200 mg/kg i.p., 60 min before the test, mice with rectal temperature below 35.0° C removed

## C=C(C)[C@@H]1CC(O)C(C)=C[C@H]1c1c(O)cc(Br)cc1O (single isomer, unassigned) [Compound I]
RjOrl: Swiss mice; [1]
  Forelimb clonus, Compared with Vehicle B (i.p.) %: 0%
  Forelimb clonus (mean ± s.e.m.): 0.8 ± 0.1
RjOrl: Swiss mice; [2]
  Forelimb clonus, Compared with Vehicle B (i.p.) %: −38%
  Forelimb clonus (mean ± s.e.m.): 0.5 ± 0.1
RjOrl: Swiss mice; 100 mg/kg i.p.
  Slight sedation (mice affected): Two mice out of the 13
RjOrl: Swiss mice; [3]
  Forelimb clonus, Compared with Vehicle B (i.p.) %: −88%
  Forelimb clonus (mean ± s.e.m.): 0.1 ± 0.1
RjOrl: Swiss mice; 200 mg/kg i.p.
  Tremor (mice affected): Two mice out of the 14
RjOrl: Swiss mice; 200 mg/kg i.p., 14 mice
  Sedation (mice affected): all mice showed slight (12 mice) to moderate (2 mice) sedation
RjOrl: Swiss mice; [4]
  Forelimb clonus, Compared with Vehicle B (i.p.) %: −63%
  Forelimb clonus (mean ± s.e.m.): 0.3 ± 0.1
DBA/2 mice; [5]
  Clonic convulsion, Latency, Compared with Vehicle (i.p.) %: +44%
  Clonic convulsion, Presence, %: 70%
  Clonic convulsion, Presence, Compared with Vehicle (i.p.) %: −30%
  Clonic convulsion, Presence, Total: 7/10
  Death, Presence, %: 20%
  Death, Presence, Compared with Vehicle (i.p.) %: −50%
  Death, Presence, Total: 2/10
  Tonic extension, Latency, Compared with Vehicle (i.p.) %: +461%
  Tonic extension, Presence, %: 40%
  Tonic extension, Presence, Compared with Vehicle (i.p.) %: −60%
  Tonic extension, Presence, Total: 4/10
  Wild running, Latency, Compared with Vehicle (i.p.) %: +55%
  Wild running, Presence, %: 80%
  Wild running, Presence, Compared with Vehicle (i.p.) %: −20%
  Wild running, Presence, Total: 8/10
  Clonic convulsion, Latency (s) Median: 9.5 s
  Tonic extension, Latency (s) Median: 60.0 s
  Wild running, Latency (s) Median: 5.1 s
DBA/2 mice; [6]
  Clonic convulsion, Latency, Compared with Vehicle (i.p.) %: +809%
  Clonic convulsion, Presence, %: 40%
  Clonic convulsion, Presence, Compared with Vehicle (i.p.) %: −60%
  Clonic convulsion, Presence, Total: 4/10
  Death, Presence, %: 0%
  Death, Presence, Compared with Vehicle (i.p.) %: −100%
  Death, Presence, Total: 0/10
  Tonic extension, Latency, Compared with Vehicle (i.p.) %: +461%
  Tonic extension, Presence, %: 0%
  Tonic extension, Presence, Compared with Vehicle (i.p.) %: −100%
  Tonic extension, Presence, Total: 0/10
  Wild running, Latency, Compared with Vehicle (i.p.) %: +924%
  Wild running, Presence, %: 50%
  Wild running, Presence, Compared with Vehicle (i.p.) %: −50%
  Wild running, Presence, Total: 5/10
  Clonic convulsion, Latency (s) Median: 60.0 s
  Tonic extension, Latency (s) Median: 60.0 s
  Wild running, Latency (s) Median: 33.8 s
DBA/2 mice; [7]
  Clonic convulsion, Latency, Compared with Vehicle (i.p.) %: +809%
  Clonic convulsion, Presence, Compared with Vehicle (i.p.) %: −100%
  Death, Presence, Compared with Vehicle (i.p.) %: −100%
  Tonic extension, Latency, Compared with Vehicle (i.p.) %: +461%
  Tonic extension, Presence, Compared with Vehicle (i.p.) %: −100%
  Wild running, Latency, Compared with Vehicle (i.p.) %: +1718%
  Wild running, Presence, Compared with Vehicle (i.p.) %: −100%
  Clonic convulsion, Latency (s) Median: 60.0 s
  Tonic extension, Latency (s) Median: 60.0 s
  Wild running, Latency (s) Median: 60.0 s
DBA/2 mice; [8]
  Clonic convulsion, Presence, %: 0%
  Clonic convulsion, Presence, Total: 0/6
  Death, Presence, %: 0%
  Death, Presence, Total: 0/6
  Tonic extension, Presence, %: 0%
  Tonic extension, Presence, Total: 0/6
  Wild running, Presence, %: 0%
  Wild running, Presence, Total: 0/6
DBA/2 mice; 100 mg/kg i.p.
  Mice with a rectal temperature below 35.0° C: Four mice
  Tremor noted (number of mice): 5 mice
DBA/2 mice; [9]
  Clonic convulsion, Latency, Compared with Vehicle (i.p.) %: +809%
  Clonic convulsion, Presence, Compared with Vehicle (i.p.) %: −80%
  Death, Presence, Compared with Vehicle (i.p.) %: −100%
  Tonic extension, Latency, Compared with Vehicle (i.p.) %: +461%
  Tonic extension, Presence, Compared with Vehicle (i.p.) %: −100%
  Wild running, Latency, Compared with Vehicle (i.p.) %: +1718%
  Wild running, Presence, Compared with Vehicle (i.p.) %: −80%
  Clonic convulsion, Latency (s) Median: 60.0 s
  Tonic extension, Latency (s) Median: 60.0 s
  Wild running, Latency (s) Median: 60.0 s
DBA/2 mice; [10]
  Clonic convulsion, Presence, %: 33%
  Clonic convulsion, Presence, Total: 2/6
  Death, Presence, %: 0%
  Death, Presence, Total: 0/6
  Tonic extension, Presence, %: 0%
  Tonic extension, Presence, Total: 0/6
  Wild running, Presence, %: 33%
  Wild running, Presence, Total: 2/6
DBA/2 mice; 200 mg/kg i.p.
  Mice with a rectal temperature below 35.0° C: Four mice
  Tremor noted (number of mice): 3 mice
DBA/2 mice; any doses (20, 50, 100, 200 mg/kg i.p.)
  Effect on the number of deaths: did not affect the number of deaths at any doses
